The text below walks through data of US8796202B2, “Multi-valent poly-Ubl chain inhibitors and methods of use” (City of Hope, priority 2011, dated 2014).

Entries after “also recorded” stand apart in the source; their conditions may differ. Non-standard residues stand in square brackets, D forms with d. Residues, ends and D or L forms follow the SMILES beside them. ξ: configuration not given here. *: point of attachment. Ile(3ξ) = CCC(C)[C@H](N)C(=O)O; Cbz = O=C(OCc1ccccc1)*

The subject of one assay is all SUMO isoforms. Particulars: reference (7), cited from earlier work.
A further assay concerns the target SUMO-3 (Homo sapiens, UniProt P55854). Description: NMR (HSQC) chemical shift perturbation binding to SUMO-3. As to conditions: for chemical shift perturbation / binding to SUMO-3: HSQC, SUMO:ligand 1:3 or 1:10. The procedure:
NMR studies. All NMR samples contained 10 mM phosphate buffer (pH 7.0) in 90% H2O/10% D2O. NMR spectra were acquired at 25° C. on a Bruker […] NMR spectrometer. All chemicals were dissolved in DMSO. Heteronuclear Single Quantum Coherence (HSQC) spectra were acquired at SUMO:compound ratios of 1:3 or 1:10 for the top scored compounds from virtual ligand screening. Both SUMO-1 and SUMO-2 were examined for their interactions with the compounds. The HSQC spectra were acquired for the protein alone, the protein with addition of 2% DMSO, and the protein in complex with a compound and 2% DMSO. The dissociation constant Kd was estimated by titrating the compound to SUMO-2, followed by recording HSQC spectra at protein:compound ratios of 1:1, 1:2, 1:3, 1:4, 1:5, 1:6, 1:7 and 1:20.
Interactions of the compounds shown in FIG. 4 with SUMO-1 and SUMO-3 were verified by NMR chemical shift perturbation analysis. These compounds generated negligible chemical shift perturbations (CSP) on SUMO-1, but much larger and specific chemical shift perturbations on SUMO-3 (FIGS. 5A and 6). […] Chemical shift perturbation was used to estimate the binding affinity of the representative compound, 333751, to SUMO-3 (20). […] This is not surprising given the much smaller size of the compound than the 10 amino acid residue SIM peptide. The SIM-binding groove on SUMO is very shallow and lacks a deep pocket (8). Since there is a lack of high affinity ligands to bind shallow surface pockets of proteins, it is unlikely that a high affinity small molecule ligand for the SIM binding surface of SUMO can be found.

Assay [1] deals with T1, interaction between poly-SUMO-3 chain and the tandem-SIM peptide (Homo sapiens, UniProt P55854).
T1 construct: made in house
Description: SIM pull-down (ELISA) competition, poly-SUMO-3 chains. The class given is binding. The procedure:
Poly-SUMO chain formation. Poly-SUMO chains were synthesized by an in vitro SUMOylation reaction (4.375 μM GST-SUMO-3 and His-SUMO-3, 40 nM Ubc9 and E1, and 5 mM ATP in a 100 μl reaction). The reaction was carried out at 37° C. for 4 h and then diluted to 1 mL with phosphate buffered saline (PBS). Poly-SUMO chains were first separated from the His-SUMO-3 monomer by glutathione affinity chromatography. The eluted poly-SUMO chains were subsequently separated from the GST-SUMO-3 monomer by Ni-NTA chromatography. The eluted poly-SUMO chains were dialyzed and concentrated.
Purification of GST-WT-SIM and GST-SC-SIM. GST-tagged wild-type (GST-WT-SIM) or scrambled SIM sequence (GST-SC-SIM) was subcloned into the pGex4T-S expression vector (Amersham) and over-expressed as an N-terminal GST fusion protein in Escherichia coli strain BL21 (DE3) (Invitrogen) at 37° C. in LB media. […]
(§1) SIM pull-down. […] The plate was read at 450 nm by an ELISA reader after the reaction was stopped by addition of phosphoric acid. Quantifications of all SIM pull-downs were scaled by measurement of GST-WT-SIM pull-down (100%) and GST-SCSIM pull-down (0%). […]
The SIM and control peptides were used in pull-down assays to determine the inhibitory effects of the conjugation of inhibitor to AuNPs. […] The amount of SUMO pulled down by the SIM peptide was detected by enzyme-linked immunosorbent assay (ELISA) in an EIA microtiter plate. […]

Assay [2] addresses interaction between SIM and SUMO-3 (Homo sapiens, UniProt P55854). Description: SIM pull-down (ELISA) competition, SUMO-3 monomer. It is filed as binding. The procedure: (§2) Purification of GST-WT-SIM and GST-SC-SIM. GST-tagged wild-type (GST-WT-SIM) or scrambled SIM sequence (GST-SC-SIM) was subcloned into the pGex4T-S expression vector (Amersham) and over-expressed as an N-terminal GST fusion protein in Escherichia coli strain BL21 (DE3) (Invitrogen) at 37° C. in LB media. Once the OD A595 nm reached 0.6, isopropyl 1-thio-[…] (IPTG; 1 mM) was added to the media and the cells were grown for an additional 4 h at 37° C. […]
as §1
(§3) The SIM and control peptides were used in pull-down assays to determine the inhibitory effects of the conjugation of inhibitor to AuNPs. […] The amount of SUMO pulled down by the SIM peptide was detected by enzyme-linked immunosorbent assay (ELISA) in an EIA microtiter plate. […] Based on the concentrations of SUMO chains and the experimental design, it was determined that the IC50 value is likely larger than the average Kd value of the complex between AuNP and SUMO chains.
On the technique in general: In an ELISA, binding on a coated surface is turned into a signal by an enzyme label.

Assay [3] concerns the target interaction between SIM and SUMO-1 (Homo sapiens, UniProt P63165). Put plainly: SIM pull-down (ELISA) competition, SUMO-1 monomer. It is filed as binding. As for the experimental part:
as §2, §1, §3

SUMO-3, sequence (P55854 1-92 limits assumed): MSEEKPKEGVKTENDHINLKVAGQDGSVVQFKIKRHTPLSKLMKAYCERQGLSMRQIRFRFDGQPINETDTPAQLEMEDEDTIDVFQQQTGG
interaction between SIM and SUMO-1, sequence (P63165 1-97 limits assumed): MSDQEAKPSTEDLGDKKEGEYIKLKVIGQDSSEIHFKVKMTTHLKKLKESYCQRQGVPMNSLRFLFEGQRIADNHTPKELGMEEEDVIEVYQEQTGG
interaction between SIM and SUMO-3, sequence (P55854 1-92 limits assumed): as the sequence (P55854 1-92 limits assumed) above
T1 sequence (P55854 1-92 limits assumed): as above
T1 sequence (P55854 1-92 limits assumed): as above

On to KVDVIDLTIE [PIASx SIM], for which, in the assay with all SUMO isoforms, the “higher affinity for all SUMO isoforms than other characterized SIM sequences” value is given as roughly 10 fold. On all SUMO isoforms (read-out: dissociation constants for all SUMO isoforms), the Kd was 4 to 8 µM.
As to `CCC(C)[C@H](NC(=O)/C=C/c1ccc(NC(=O)CCS)cc1)C(=O)N[C@@H](CC(C)C)C(=O)O` (stereo partly drawn) [derivative 2], the “chemical shift perturbation / binding to SUMO-3” value at SUMO-3 is “induced chemical shift perturbation on the same surface of SUMO-3 and to a similar extent”. In assay [1], the “inhibition of poly-SUMO-3 chain / SIM interaction” value is “nor did it inhibit poly-SUMO chain and SIM interactions”. In addition, in assay [2], the “inhibition of SUMO-3 monomer / SIM peptide interaction” value was “not significantly inhibitory”. The “inhibition of SUMO-1 monomer / SIM peptide interaction” value in assay [3] is reported as “not significantly inhibitory”.
Regarding `CCC(C)[C@H](NC(=O)OCc1ccccc1)C(=O)N[C@@H](CC(C)C)C(=O)O` (stereo partly drawn) [compound 333751] (Cbz-[Ile(3ξ)]-Leu-OH), at SUMO-3, the “chemical shift perturbation / binding to SUMO-3” value was “among the strongest; also recorded: induced chemical shift perturbation on the same surface of SUMO-3 and to a similar extent”. Further, the “affinity lower than that between the PIASx SIM and SUMO-2” value at SUMO-3 (compared with PIASx SIM peptide) was “more than 200 fold”. Also, on SUMO-3 (estimated from chemical shift change vs ligand:protein ratio), the Kd is 1200 ± 400 µM.
